The numbers were not newly measured in patent publication US20260191683A1, “SUSTAINED RELEASE OCULAR IMPLANTS” (University of Tennessee Research Foundation, priority 2023, published 2026), which cites them from elsewhere.

The conditions of the data set: high permeability.

Take `CC(C)C[C@H](CN)CC(=O)O` [PRG, pregabalin]: the BCS class result was “BCS class I drug”.
